Reference: patent US8598355B2, “Amide compound” (Astellas Pharma Inc., priority 2008, dated 2013)

Experiments:
EP4 receptor = molecular target: T1, EP4 receptor (Homo sapiens, UniProt P35408); test: EP4 receptor antagonistic activity by measurement of cAMP amount in human Jurkat cells (HTRF); format: cell-based; settings: inhibition of cAMP, PGE2 100 nM
T1 construct: endogenous in cells; host or cells: Jurkat cells (human leukemia T lymphoma), no transfection described
Experimental: Evaluation Test of EP4 Receptor Antagonistic Activity by Measurement of cAMP Amount in Human Jurkat Cells
Jurkat cells (derived from human leukemia T lymphoma) were cultured with RPMI1640 (added with 10% fetal bovine serum) using a F75 flask. After proliferation to semiconfluency, indomethacin having a final concentration of 5 μM was added thereto, and the cells were further cultured for 18 hours. The cells were collected in a 15-mL Spitz tube, prepared to be 1×10^6 cells/mL using a Cell Banker (Mitsubishi Kagaku Iatron), and stored at −80° C. until used for assay. The cells were cultured in a CO2 incubator (37° C., 5% CO2).
A cAMP HiRange kit (Cisbio international) was used for cAMP measurement. A test compound, PGE2, and the cells were diluted and prepared with an assay buffer. The test compound was prepared to have a 3-fold concentration relative to the final concentration, PGE2 was prepared to be 300 nM, and the Jurkat cells frozen stored were prepared to be 1×10^6 cells/mL by thawing them at 37° C. To a 384-well U-bottom black microplate (Corning) were added the test compound, the cells, and PGE2 in this order in each in an amount of 5 μL, followed by shaking with a plate shaker and incubating at room temperature for 30 minutes. After incubation, 5 μL of a d2 reagent which had been diluted 0.6-fold with a lysis buffer was added to each well, followed by shaking with a plate shaker. Subsequently, 5 μL of an europium cryptate reagent which had been diluted 0.6-fold with a lysis buffer was added to each well, followed by shaking with a plate shaker and incubating at room temperature for 60 minutes under light shielding. After incubation, the fluorescence of the cryptate at 620 nm and the fluorescence of the d2 at 655 nm were measured using ARVO1420 (PerkinElmer). The cAMPs of 280, 70, 17.5, 4.38, 1.09, 0.27, and 0.068 nM were measured simultaneously for creating a standard curve. All measurements were performed in quadruplicate, and inhibitory rates were calculated by determining the cAMP amount of each test sample to the value obtained by subtracting the cAMP amount of the group without addition of PGE2 from the cAMP amount of the group with addition of PGE2 of 100 nM. IC50 values were calculated by a Logistic regression method.
In this connection, as the “assay buffer” and “lysis buffer” above, those as shown below were used:
Assay buffer; 1×HBSS (Hanks buffered salt solution, Nissui Pharmaceutical Co., Ltd.), 20 mM HEPES (pH 7.4, Nakarai Tesque), 0.5 mM IBMX (3-isobutyl-1-methylxanthine, WAKO), 0.02% CHAPS (Sigma), 0.1% Bovine serum albumin (Sigma), 2 μM Indomethacin (Sigma)
Lysis buffer; 50 mM NaPO4, 0.8 M KF, 1% Triton X-100, 0.2% Bovine serum albumin

rat EP4 receptor [1] = molecular target: T2, rat EP4 receptor (Rattus norvegicus, UniProt P43114); test: Rat EP4 receptor antagonistic activity by measurement of cAMP amount (rEP4 cAMP HTRF assay, CHO cells); format: cell-based; design: expressed in transfected cells; settings: inhibition of cAMP, PGE2 100 nM, CHO cells expressing rat EP4
T2 sequence (P43114 whole entry): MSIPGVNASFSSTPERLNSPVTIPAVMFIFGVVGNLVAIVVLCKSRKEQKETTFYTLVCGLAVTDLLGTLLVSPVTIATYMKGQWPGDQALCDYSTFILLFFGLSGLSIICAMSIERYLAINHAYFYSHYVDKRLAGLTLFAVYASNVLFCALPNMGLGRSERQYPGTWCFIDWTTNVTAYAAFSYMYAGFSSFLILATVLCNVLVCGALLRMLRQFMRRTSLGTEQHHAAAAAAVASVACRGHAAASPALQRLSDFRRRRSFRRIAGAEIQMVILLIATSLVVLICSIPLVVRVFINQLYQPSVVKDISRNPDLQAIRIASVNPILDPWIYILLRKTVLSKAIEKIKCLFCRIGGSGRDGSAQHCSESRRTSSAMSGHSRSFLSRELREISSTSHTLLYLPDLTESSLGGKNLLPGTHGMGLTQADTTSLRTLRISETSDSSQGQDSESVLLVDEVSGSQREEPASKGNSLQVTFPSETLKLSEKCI
Experimental: Evaluation Test of Rat EP4 Receptor Antagonistic Activity by Measurement of cAMP Amount
CHO cells in which rat EP4 had been forced to be expressed were seeded in 96-well plates at 2×10^4 cells/100 μL and cultured overnight. The culture medium was replaced with 2 μM Indomethacin/0.1% BSA/alpha-MEM, and further, after 60 minutes, replaced with 1 mM IBMX/2 μM Indomethacin/0.1% BSA/alpha-MEM. After 10 minutes, the test compound was added, and further, after 10 minutes, PGE2 was added at a final concentration of 100 nM. The cells were cultured and reacted in a CO2 incubator (37° C., 5% CO2). After 30 minutes, the culture medium was removed and 100 μL/well of 0.2% Triton X-PBS was added for lysis of the cells. The cAMP contained in this cell lysis solution was measured with a cAMP HiRange kit (Cisbio international). The cell lysis solution was disperesed at 10 μL each into a 384-well U-bottom black microplate (Corning), and a d2 reagent and an europium cryptate reagent were added in this order to each well, each in an amount of 5 μL. It was incubated at room temperature for 60 minutes under light shielding. After incubation, the fluorescence of the cryptate at 620 nm and the fluorescence of the d2 at 655 nm were measured using ARVO1420 (PerkinElmer). The cAMPs of 280, 70, 17.5, 4.38, 1.09, 0.27, and 0.068 nM were measured simultaneously for creating a standard curve. The inhibitory rates were calculated by determining the cAMP amount of each test sample to the value obtained by subtracting the cAMP amount of the group without addition of PGE2 from the cAMP amount of the group with addition of PGE2 of 100 nM. IC50 values are calculated by a Logistic regression method.

rat EP4 receptor [2] = molecular target: T2, rat EP4 receptor; test: Evaluation test of rat EP4 receptor affinity ([3H]PGE2 binding, membrane fraction of HEK293 cells expressing rat EP4); design: expressed in transfected cells; host or cells: HEK293 cells, transient transfection with Lipofectamine 2000; membrane fraction; settings: [3H]PGE2 0.3 nM
Experimental: Evaluation Test of Rat EP4 Receptor Affinity
Cell Culturing and Transfection
Using a 10 cm collagen-coated dish (Asahi Glass), HEK293 cells were cultured in D-MEM culture medium, the culture medium was removed at a confluence (90 to 100% density state) and washed with a phosphate buffer saline (PBS), and then the cells were detached with N,N,N′,N′-tetrakis(carboxymethyl)ethylenediamine (EDTA). The number of the cells were counted and seeded on a 15 cm collagen-coated dish to a confluence of 70%. On the next day, to an Opti-MEM culture medium at 1.2 mL/dish was added Lipofectamine 2000 (Invitrogen) at 60 μL/dish, followed by leaving to stand at room temperature for 5 minutes. A plasmid in which rat EP4 (Sequence Number 1) had been inserted into a TA cloning site of pcDNA3.1-V5-His-topo was added thereto at 15 μg/dish. After leaving to stand at room temperature for 30 minutes, the resultant was added to the dish and cultured for 20 to 24 hours. The cell culture was carried out in a CO2 incubator (37° C., 5% CO2).
Preparation of Membrane Fraction
The culture medium was removed by suction, 10 mL of cooled PBS was added thereto per 15 cm dish, and the cells were scraped using a cell scraper (Sumitomo Bakelite). They were washed with cooled PBS (1,200 rpm, 4° C., 5 min), and then suspended in 6 mL of cooled 20 mM Tris-HCl (pH 7.4; Nakalai Tesque Inc., including 5 mM EDTA (Nakalai Tesque Inc.) per dish and the resultant was homogenized using a Polytron and the homogenate was centrifuged (26,000 rpm, 20 min, 4° C.). The obtained precipitate was resuspended in cooled 20 mM Tris-HCl and homogenized again using a Polytron, and the homogenate was centrifuged (26,000 rpm, 20 min, 4° C.). The obtained precipitate was resuspended in 50 mM HEPES (pH 7.5; Dojindo Laboratories) at 1 mL per dish, homogenized using a Polytron, and freeze-stored at −80° C. as a membrane fraction. At this time, a part thereof was used for the measurement of the protein concentration. Measurement of the protein concentration was carried out in duplicate using a Bio-Rad Protein assay kit (Bio-Rad Laboratories) in accordance with the appended standard Protocol.
[^3H]PGE2 50 μL (final concentration 0.3 nM; Perkin Elmer), 100 μL (20 μg/well) of a membrane fraction prepared from the rat EP4 expression cell and 50 μL of a test compound were mixed in a 96-well microplate (Sumitomo Bakelite), incubated at room temperature for 1 hour, filtered by suction on a UniFilter-96 GF/B (Perkin Elmer) using a FilterMate Harvester (Perkin Elmer), and then washed three times with 300 μL/well of a cooled assay buffer. Dilution of [^3H]PGE2 and the membrane fraction was carried out using an assay buffer (50 mM HEPES, 10 mM MgCl2), and dilution of the test compound and the unlabeled PGE2 was carried out using DMSO and an assay buffer. Further, in the case of the addition of a human serum albumin (HSA), dilution was carried out using an assay buffer containing 4% HSA (final concentration 1%; Sigma). The UniFilter-96 GF/B was treated preliminarily by washing twice with 200 μL/well of a cooled assay buffer. The UniFilter-96 GF/B after filtration was dried in a dryer overnight, 50 μL/well of MicroScint20 (Perkin Elmer) was added thereto, and then the radioactivity was measured using a TopCount (Perkin Elmer). For measurement of the non-specific binding, an unlabeled PGE2 (final concentration 1 μM; Cayman) was added. All of the measurements were carried out in duplicate, and the specific binding amount was determined by subtracting the non-specific binding amount from the total binding amount. The Ki value was calculated according to the general methods.
In the connection, Ex represents the below-described Example Compound number.

rat EP4 receptor [3] = molecular target: T2, rat EP4 receptor; test: In vivo rat EP4 receptor antagonistic activity (ONO-4819/LPS, plasma TNF-α); settings: SD rat, oral
Experimental: Evaluation Test of In Vivo Rat EP4 Receptor Antagonistic Activity
A solution of PEG 400:20% Tween 80:aqueous 1 M NaHCO3 solution=1:4:5 of a test compound was orally administered to a SD rat (male, 6-week old) under non-fasting conditions, and after 1 hour, ONO-4819 was administered subcutaneously to the back of the rat. After 30 minutes, Lipopolysaccharide (LPS, 0.01 mg/kg) was administered to the tail vein without anesthesia, and after 60 minutes, 0.5 mL of heparin blood was collected from the fundus under ether anesthesia. The blood sample was centrifuged (3000 rpm, 10 minutes) to separate the plasma, and then the TNF-α concentration in the rat plasma was measured by an ELISA kit (see Hepatology Research Journal, vol. 21, 252-260, 2001). A value obtained by subtracting the TNF-α concentration of the group treated with ONO-4819 from the TNF-α concentration of the group not treated with ONO-4819 was taken as 100%, and the inhibitory rates to the value were calculated for the test compounds.
In this connection, Ex represents the below-described Example compound number.

T1 sequence (P35408 whole entry): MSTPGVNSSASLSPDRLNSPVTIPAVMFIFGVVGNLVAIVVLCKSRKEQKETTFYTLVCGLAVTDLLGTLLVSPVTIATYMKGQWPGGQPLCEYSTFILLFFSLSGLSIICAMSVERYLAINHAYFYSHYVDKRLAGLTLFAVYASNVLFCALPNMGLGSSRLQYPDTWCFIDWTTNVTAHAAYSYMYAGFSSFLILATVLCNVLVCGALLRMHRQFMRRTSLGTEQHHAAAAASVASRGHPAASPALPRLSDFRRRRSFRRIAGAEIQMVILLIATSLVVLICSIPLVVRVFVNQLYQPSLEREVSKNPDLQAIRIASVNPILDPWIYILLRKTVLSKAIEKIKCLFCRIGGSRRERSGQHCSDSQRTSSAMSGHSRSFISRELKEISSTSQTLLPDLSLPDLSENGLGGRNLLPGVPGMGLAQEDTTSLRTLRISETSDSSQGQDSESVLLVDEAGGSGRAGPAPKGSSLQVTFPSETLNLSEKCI

SMILES | Ki (rat EP4 receptor [2]) | Inhibitory rate (%) (rat EP4 receptor [3]; dose 0.01 mg/kg) | melting point | further results
O=C(O)c1ccc(CNC(=O)c2cc(Cl)cc3ccn(Cc4csc(-c5ccccc5)n4)c23)cc1 [Example 208] | 1.8 nM | 35% | – | –
O=C(O)c1ccc(CNC(=O)c2cc(C(F)(F)F)cc3ccn(Cc4csc(-c5ccccc5)n4)c23)cc1 [Example 212] | 2.4 nM | 52% | – | –
O=C(NC[C@H]1CC[C@H](C(=O)O)CC1)c1cc(C(F)(F)F)cc2ccn(Cc3csc(-c4ccccc4)n3)c12 [Example 213] | 2 nM | 75% | – | –
O=C(NC[C@H]1CC[C@H](C(=O)O)CC1)c1cc(C(F)(F)F)cc2ccn(Cc3ccc(-c4ccccc4)cn3)c12 [Example 214] | 2.2 nM | 62% | – | –
O=C(O)c1ccc(CNC(=O)c2cc(C(F)(F)F)cc3ccn(CCOc4ccc(Cl)cc4)c23)cc1 [Example 215] | 2.6 nM | 71% | 208 to 210 °C | –
Cc1cc(C(=O)NC[C@H]2CC[C@H](C(=O)O)CC2)c2c(ccn2Cc2cc3ccccc3cn2)c1 [Example 224] | 2.1 nM | – | 251 to 252 °C (dec.) | Inhibitory rate (%) (rat EP4 receptor [3]; dose 0.003 mg/kg): 71%
O=C(NC[C@H]1CC[C@H](C(=O)O)CC1)c1cc(F)cc2ccn(Cc3cc4ccccc4cn3)c12 [Example 225] | 2.1 nM | – | – | Inhibitory rate (%) (rat EP4 receptor [3]; dose 0.003 mg/kg): 77%
O=C(NC[C@H]1CC[C@H](C(=O)O)CC1)c1cc(C(F)(F)F)cc2ccn(Cc3ccc(Cl)cn3)c12 [Example 229] | 3.9 nM | – | 224 to 226 °C (dec.) | –

These reach a lower Ki (rat EP4 receptor [2]). Values come first.

Ki (rat EP4 receptor [2]) | Inhibitory rate (%) (rat EP4 receptor [3]; dose 0.01 mg/kg) | melting point | SMILES | further results
1.7 nM | 57% | 244 to 245 °C (dec.) | Cc1cc(C(=O)NC[C@H]2CC[C@H](C(=O)O)CC2)c2c(ccn2Cc2ccc3ccccc3n2)c1 [Example 96] | –
1.7 nM | 43% | – | O=C(O)c1ccc(CNC(=O)c2cc(Cl)cc3ccn(CCOc4ccc(Cl)cc4)c23)cc1 [Example 211] | –
1.7 nM | – | 228 to 230 °C | O=C(NC[C@H]1CC[C@H](C(=O)O)CC1)c1cc(Cl)cc2ccn(Cc3cc4ccccc4o3)c12 [Example 227] | –
1.4 nM | – | 211 to 213 °C | O=C(NC[C@H]1CC[C@H](C(=O)O)CC1)c1cc(C(F)(F)F)cc2ccn(Cc3cc4cc(Cl)ccc4o3)c12 [Example 231] | –
1.3 nM | – | – | O=C(NC[C@H]1CC[C@H](C(=O)O)CC1)c1cc(Cl)cc2ccn(CCOc3ccc(Cl)cc3)c12 [Example 210] | Inhibitory rate (%) (rat EP4 receptor [3]; dose 0.03 mg/kg): 67%
1.2 nM | 88% | – | O=C(NC[C@H]1CC[C@H](C(=O)O)CC1)c1cccc2ccn(Cc3cc4ccccc4o3)c12 [Example 188] | –
1.2 nM | 72% | – | O=C(NC[C@H]1CC[C@H](C(=O)O)CC1)c1cccc2ccn(Cc3cc4ccccc4s3)c12 [Example 206] | –
1.1 nM | – | – | CN(NC(=O)c1cccc2ccn(Cc3csc(-c4ccccc4)n3)c12)c1ccc(C(=O)O)cc1 [Example 207] | Inhibitory rate (%) (rat EP4 receptor [3]; dose 0.03 mg/kg): 83%
0.76 nM | – | – | C[C@H](NC(=O)c1cccc2ccn(Cc3ccc(-c4ccccc4)cc3)c12)c1ccc(C(=O)O)cc1 [Example 3, 4-[(1S)-1-({[1-(biphenyl-4-ylmethyl)-1H-indol-7-yl]carbonyl}amino)ethyl]benzoic acid] | IC50 (EP4 receptor): 0.11 nM; IC50 (rat EP4 receptor [1]): 0.99 nM
